Target: T1, PDE6 (Bos taurus, UniProt P11541+P23439)
T1 construct: using an enzyme isolated from Cerep bovine retina; tissue Cerep; host or cells: bovine retina
T1 sequence (P11541 2-856 limits assumed): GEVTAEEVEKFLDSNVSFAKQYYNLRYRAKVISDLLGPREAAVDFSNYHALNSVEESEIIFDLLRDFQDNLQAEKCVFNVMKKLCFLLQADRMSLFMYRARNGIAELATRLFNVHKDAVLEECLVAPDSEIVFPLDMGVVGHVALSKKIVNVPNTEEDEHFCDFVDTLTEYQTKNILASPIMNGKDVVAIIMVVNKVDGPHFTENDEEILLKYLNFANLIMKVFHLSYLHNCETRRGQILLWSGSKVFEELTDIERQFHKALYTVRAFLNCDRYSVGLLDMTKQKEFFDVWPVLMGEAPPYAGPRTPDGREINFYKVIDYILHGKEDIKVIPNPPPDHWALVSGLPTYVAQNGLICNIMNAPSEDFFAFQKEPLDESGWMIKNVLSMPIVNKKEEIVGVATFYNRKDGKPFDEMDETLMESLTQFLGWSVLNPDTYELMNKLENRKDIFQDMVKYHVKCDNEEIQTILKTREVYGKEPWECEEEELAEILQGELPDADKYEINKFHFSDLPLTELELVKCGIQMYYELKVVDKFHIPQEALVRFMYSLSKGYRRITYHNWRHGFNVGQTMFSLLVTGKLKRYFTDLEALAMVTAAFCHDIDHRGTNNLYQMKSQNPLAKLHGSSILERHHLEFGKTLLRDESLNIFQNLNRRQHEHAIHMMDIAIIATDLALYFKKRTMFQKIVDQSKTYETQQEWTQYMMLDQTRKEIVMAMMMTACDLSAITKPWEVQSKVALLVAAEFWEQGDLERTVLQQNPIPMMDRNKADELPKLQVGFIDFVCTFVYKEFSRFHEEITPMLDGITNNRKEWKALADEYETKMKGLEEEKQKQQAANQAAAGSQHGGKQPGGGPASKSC
T1 sequence (P23439 2-850 limits assumed): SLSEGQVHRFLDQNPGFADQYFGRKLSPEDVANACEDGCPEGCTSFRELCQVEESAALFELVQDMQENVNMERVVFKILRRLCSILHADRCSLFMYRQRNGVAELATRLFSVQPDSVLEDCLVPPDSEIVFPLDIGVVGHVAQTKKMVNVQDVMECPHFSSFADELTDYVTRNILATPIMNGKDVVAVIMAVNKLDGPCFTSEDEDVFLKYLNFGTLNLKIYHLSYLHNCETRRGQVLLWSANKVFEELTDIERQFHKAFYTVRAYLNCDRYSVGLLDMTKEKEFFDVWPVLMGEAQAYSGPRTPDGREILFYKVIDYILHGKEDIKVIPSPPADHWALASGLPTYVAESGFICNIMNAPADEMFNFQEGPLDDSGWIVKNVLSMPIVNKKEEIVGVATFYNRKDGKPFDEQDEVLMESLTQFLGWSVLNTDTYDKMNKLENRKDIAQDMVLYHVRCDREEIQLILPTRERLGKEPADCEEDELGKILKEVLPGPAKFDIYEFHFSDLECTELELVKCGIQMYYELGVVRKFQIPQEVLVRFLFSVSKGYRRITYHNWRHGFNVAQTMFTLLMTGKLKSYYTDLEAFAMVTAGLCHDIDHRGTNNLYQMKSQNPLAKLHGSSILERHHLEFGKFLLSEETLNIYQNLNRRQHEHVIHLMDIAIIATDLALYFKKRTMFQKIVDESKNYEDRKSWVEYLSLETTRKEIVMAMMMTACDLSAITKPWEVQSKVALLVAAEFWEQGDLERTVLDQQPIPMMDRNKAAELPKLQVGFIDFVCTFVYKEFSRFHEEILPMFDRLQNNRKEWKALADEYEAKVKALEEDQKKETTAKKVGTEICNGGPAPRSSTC
Test: PDE6 enzyme inhibition (SPA, enzyme isolated from bovine retina)
Assay type: biochemical
Conditions: FIGS. 14 and 15, test concentration not given
Method: The effects of compounds BL-230 and BL-236 on PDE6 human enzyme activity were quantified by measuring the production of 5′GMP from cGMP, using an enzyme isolated from Cerep bovine retina of and the detection method used was scintillation proximity assay (SPA).
The test compound, the reference compound or water (control) were added to a buffer containing 40 mM Tris-HCl (pH 7.8), 3 mM MgCl2, 1.4 mM DTT, 0.21% BSA, 200 mM NH4Cl, 2 uM cGMP and 0.05 μCi of [^3H] cGMP. Then the reaction was started by adding the enzyme (final amount depending on the efficiency of the isolation) and the mixture was incubated for 60 minutes at 22° C. For basal control measurements, the enzyme was omitted from the reaction mixture. Following this, the SPA incubation beads were added. After 20 minutes at 22° C. under agitation, the amount of [^3H] 5′GMP was quantified with a scintillation counter (Topcount, Packard). The results were expressed as an inhibition percentage of the control enzyme activity. The standard inhibitory reference compound zaprinast was used, which was tested in each experiment at several concentrations to obtain an inhibition curve from which its IC50 value was calculated. […]

Row | inhibition of PDE6 enzyme activity [%] | SMILES
1 | 85 | O=C1C2=C(c3c[nH]c4ccccc34)OC(c3ccc4c(c3)OCO4)N2C(=O)CN1CCO (centres unmarked) [BL-230, 3-(benzo[d][1,3]dioxol-5yl)-7-(2-hydroxyethyl)-1-(1H-indol-3-yl)-6,7-dihydro-3H-oxazolo[3,4-a]pyrazine-5,8-dione]
2 | 90 | C[C@@H](CO)N1CC(=O)N2C(=C(c3c[nH]c4ccccc34)OC2c2ccc3c(c2)OCO3)C1=O (stereo partly drawn) [BL-236, 3-(benzo[d][1,3]dioxol-5yl)-7-((S)1-hydroxypropan-2yl)-1-(1H-indol-3-yl)-6,7-dihydro-3H-oxazolo[3,4-a]pyrazine-5,8-dione]

— patent US9359378B2, “Substituted oxazolo[3,4-a]pyrazines as pharmaceutcals” (BIOLAB SANUS FARMACÊUTICA LTDA., priority 2014, dated 2016)
